Laboratory results from ChEMBL document CHEMBL5512665, “A CARM1 Inhibitor Potently Suppresses Breast Cancer Both In Vitro and In Vivo” (J Med Chem, 2024).
Calls of active or inactive are those of the source. The rule behind the calls is not given here.

How the values were obtained:
[1] = Toxicity in BALB/C mouse xenografted with human MCF7 cells assessed as change in body weight at 25 mg/kg,ip administrated every other day for 29 days; assay type: organism-based; conditions: in vivo, 696 h, time 29 day
[2] = Toxicity in BALB/C mouse xenografted with human MCF7 cells assessed as change in heart morphology at 50 mg/kg,ip administrated every other day for 29 days; assay type: organism-based; conditions: in vivo, 696 h, time 29 day
[3] = Toxicity in BALB/C mouse xenografted with human MCF7 cells assessed as change in liver morphology at 50 mg/kg,ip administrated every other day for 29 days; assay type: organism-based; conditions: in vivo, 696 h, time 29 day
MCF7 [4] = assay: Antitumor activity against human MCF7 cells xenografted in BALB/C mouse assessed as downregulation of N-Myc gene expression at 50 mg/kg,ip administrated every other day for 29 days by RT-qPCR analysis; assay type: functional, organism-based; conditions: time 29.0 day
MCF7 [5] = assay: Antitumor activity against human MCF7 cells xenografted in BALB/C mouse assessed as downregulation of TFF1 gene expression at 25 mg/kg,ip administrated every other day for 29 days by RT-qPCR analysis; assay type: functional, organism-based; conditions: time 29.0 day
MCF7 [6] = assay: Antitumor activity against human MCF7 cells xenografted in BALB/C mouse assessed as downregulation of NRIP1 gene expression at 25 mg/kg,ip administrated every other day for 29 days by RT-qPCR analysis; assay type: functional, organism-based; conditions: time 29.0 day
MCF7 [7] = assay: Antitumor activity against human MCF7 cells xenografted in BALB/C mouse assessed as upregulation of ISG15 gene expression at 25 mg/kg,ip administrated every other day for 29 days by RT-qPCR analysis; assay type: functional, organism-based; conditions: time 29.0 day
MCF7 [8] = assay: Antitumor activity against human MCF7 cells xenografted in BALB/C mouse assessed as upregulation of IFIT1 gene expression at 50 mg/kg,ip administrated every other day for 29 days by RT-qPCR analysis; assay type: functional, organism-based; conditions: time 29.0 day
MDA-MB-468 = assay: Antiproliferative activity against human MDA-MB-468 cells assessed as reduction in cell growth incubated for 7 days by celltiter 96 aqueous one solution cell proliferation assay; conditions: MDA-MB-468, 168 h
MDA-MB-231 [9] = assay: Antitumor activity against human MDA-MB-231 cells xenografted in BALB/C mouse assessed as inhibition of tumor growth at 25 mg/kg,ip administrated daily for 11 days; assay type: functional, organism-based; conditions: time 11.0 day
MDA-MB-231 [10] = assay: Antitumor activity against human MDA-MB-231 cells xenografted in BALB/C mouse assessed as reduction of tumor weight at 50 mg/kg,ip administrated daily for 11 days; assay type: functional, organism-based; conditions: time 11.0 day
[11] = Toxicity in BALB/C mouse xenografted with human MDA-MB-231 cells assessed as change in body weight at 25 mg/kg,ip administrated daily for 11 days; assay type: organism-based; conditions: in vivo, 264 h, time 11 day
[12] = Toxicity in BALB/C mouse xenografted with human MDA-MB-231 cells assessed as change in body weight at 50 mg/kg,ip administrated daily for 11 days; assay type: organism-based; conditions: in vivo, 264 h, time 11 day
[13] = Toxicity in BALB/C mouse xenografted with human MDA-MB-231 cells assessed as change in spleen morphology at 25 mg/kg,ip administrated daily for 11 days; assay type: organism-based; conditions: in vivo, 264 h, time 11 day
[14] = Toxicity in BALB/C mouse implanted with mouse 4T1 cells assessed as change in spleen morphology at 50 mg/kg,ip administrated daily for 14 days; assay type: organism-based; conditions: in vivo, 336 h, time 14 day
[15] = Toxicity in BALB/C mouse implanted with mouse 4T1 cells assessed as change in lung morphology at 25 mg/kg,ip administrated daily for 14 days; assay type: organism-based; conditions: in vivo, 336 h, time 14 day
[16] = Toxicity in BALB/C mouse implanted with mouse 4T1 cells assessed as change in kidney morphology at 25 mg/kg,ip administrated daily for 14 days; assay type: organism-based; conditions: in vivo, 336 h, time 14 day
4T1 [17] = assay: Antitumor activity against mouse 4T1 cells implanted in BALB/C mouse assessed as downregulation of N-Myc gene expression at 25 mg/kg,ip administrated daily for 14 days by RT-qPCR analysis; assay type: functional, organism-based; conditions: time 14.0 day
4T1 [18] = assay: Antitumor activity against mouse 4T1 cells implanted in BALB/C mouse assessed as downregulation of PGR gene expression at 25 mg/kg,ip administrated daily for 14 days by RT-qPCR analysis; assay type: functional, organism-based; conditions: time 14.0 day
4T1 [19] = assay: Antitumor activity against mouse 4T1 cells implanted in BALB/C mouse assessed as upregulation of CCL5 gene expression at 25 mg/kg,ip administrated daily for 14 days by RT-qPCR analysis; assay type: functional, organism-based; conditions: time 14.0 day
4T1 [20] = assay: Antitumor activity against mouse 4T1 cells implanted in BALB/C mouse assessed as upregulation of CCL5 gene expression at 50 mg/kg,ip administrated daily for 14 days by RT-qPCR analysis; assay type: functional, organism-based; conditions: time 14.0 day
4T1 [21] = assay: Antitumor activity against mouse 4T1 cells implanted in BALB/C mouse assessed as upregulation of DDX58 gene expression at 50 mg/kg,ip administrated daily for 14 days by RT-qPCR analysis; assay type: functional, organism-based; conditions: time 14.0 day
4T1 [22] = assay: Antitumor activity against mouse 4T1 cells implanted in BALB/C mouse assessed as increase in infiltration of CD8 positive T cells at 50 mg/kg,ip administrated daily for 14 days by immunohistochemical staining based analysis; assay type: functional, organism-based; conditions: time 14.0 day
MCF7 [23] = assay: Synergistic antiproliferative activity against human MCF7 cells assessed as downregulation of N-Myc gene expression at 2.5 uM incubated for 6 hrs in presence of tamoxifen by RT-qPCR analysis; assay type: functional, cell-based
MCF7 [24] = assay: Synergistic antiproliferative activity against human MCF7 cells assessed as downregulation of TFF1 gene expression at 2.5 uM incubated for 6 hrs in presence of tamoxifen by RT-qPCR analysis; assay type: functional, cell-based
MCF7 [25] = assay: Synergistic antiproliferative activity against human MCF7 cells assessed as downregulation of FOXC1 gene expression at 2.5 uM incubated for 6 hrs in presence of fulvestrant by RT-qPCR analysis; assay type: functional, cell-based
MCF7 [26] = assay: Synergistic antitumor activity against human MCF7 cells xenografted in BALB/C mouse assessed as downregulation of GREB1 gene expression at 25 mg/kg,ip administrated every other day for 15 days in presence of 5 mg/kg tamoxifen oral administration by RT-qPCR analysis; assay type: functional, organism-based; conditions: time 15.0 day
MCF7 [27] = assay: Potentiation of etoposide induced antiproliferative activity against human MCF7 cells assessed as upregulation of ISG15 gene expression at 2.5 uM in presence of etoposide by RT-qPCR analysis; assay type: functional, cell-based
4T1 [28] = assay: Potentiation of etoposide induced antiproliferative activity against mouse 4T1 cells assessed as upregulation of IFNalpha gene expression at 2.5 uM in presence of etoposide by RT-qPCR analysis; assay type: functional, cell-based
4T1 [29] = assay: Potentiation of etoposide induced antiproliferative activity against mouse 4T1 cells assessed as upregulation of IFIT1 gene expression at 2.5 uM in presence of etoposide by RT-qPCR analysis; assay type: functional, cell-based
[30] = Toxicity in BALB/C mouse implanted with mouse 4T1 cells assessed as change in body weight at 25 mg/kg,ip administrated daily for 12 days in presence of 8 mg/kg etoposide administration; assay type: organism-based; conditions: in vivo, 288 h, time 12 day
4T1 [31] = assay: Potentiation of etoposide induced antitumor activity against mouse 4T1 cells implanted in BALB/C mouse assessed as upregulation of IFIT1 gene expression at 25 mg/kg,ip administrated daily for 12 days in presence of 8 mg/kg etoposide administration by RT-qPCR analysis; assay type: functional, organism-based; conditions: time 12.0 day

In the case of `Cc1ccc(-c2nc(N3CCN(CCN(C)C)CC3)ncc2-c2ccoc2)cc1.Cl.Cl`, the Activity [1] is reported as “Non-Toxic”, the Activity [2] is reported as “Non-Toxic” and the Activity [3] is reported as “Non-Toxic”. For the same molecule, the Activity (MCF7 [4]) was “Active”, the Activity (MCF7 [5]) was “Active” and the Activity (MCF7 [6]) was “Active”. The Activity (MCF7 [7]) was “Active”, the Activity (MCF7 [8]) was “Active” and the EC50 (MDA-MB-468) was 2020 nM. The Activity (MDA-MB-231 [9]) was “Active”, the Activity (MDA-MB-231 [10]) was “Active” and the Activity [11] was “Non-Toxic”. The Activity [12] was “Non-Toxic”, the Activity [13] was “Non-Toxic” and the Activity [14] was “Non-Toxic”. For the same molecule, the Activity [15] was “Non-Toxic”, the Activity [16] was “Non-Toxic” and the Activity (4T1 [17]) was “Active”. The Activity (4T1 [18]) was “Active”, the Activity (4T1 [19]) was “Active” and the Activity (4T1 [20]) was “Active”. The Activity (4T1 [21]) was “Active”, the Activity (4T1 [22]) was “Active” and the Activity (MCF7 [23]) was “Active”. The Activity (MCF7 [24]) was “Active”, the Activity (MCF7 [25]) was “Active” and the Activity (MCF7 [26]) was “Active”. The Activity (MCF7 [27]) was “Active”, the Activity (4T1 [28]) was “Active” and the Activity (4T1 [29]) was “Active”. The Activity [30] was “Non-Toxic” and the Activity (4T1 [31]) was “Active”.
